Measurements published in publication PMC7217877, “N-AS-triggered SPMs are direct regulators of microglia in a model of Alzheimer’s disease” (Nature Communications, 2020).
Several values for one entry are separate records, joined by “and”; a condition that tells them apart may be missing. Equal values may be shown once.

Assays:
[1] = test system: neuron; experiment: western blotting for ac-S565 and total COX2 in primary cells; assay type: cell-based, C57BL/6 mice; settings: Ab 10mM + supplement, replicates
[2] = test system: microglia; experiment: as above; assay type: cell-based, C57BL/6 mice; parameters: ac-S565, western blotting (Fig 3h): scale not given here; settings: Ab 10mM + supplement, replicates
Procedure: To confirm the generation and roles of N-AS in neurons, cells from E18 C57BL/6 mice were prepared as previously described. Cortices were dissected and then dissociated followed by incubation in papain (Worthington) at 37 °C for 15 min. Neurons were plated on poly-L-lysine-coated coverslips with neuronal culture medium, serum-free Neurobasal medium (Gibco) containing 2% B27 supplements (Gibco), 1 mM Glutamax supplement (Gibco), and 100 U ml^−1 streptomycin/ 100 U ml^−1 penicillin (Gibco) at 37 °C in a humidified atmosphere of 5% CO2. Aβ 1–42 (10 μM, 24 h, Invitrogen, 03112) was exposed to neurons and the cells were analyzed for the generation and roles of N-AS. Primary astrocyte cultures were prepared from C57BL/6 mice as described previously. In brief, after removal of the meninges, postnatal day 7 (P7) mouse brain tissues were minced and incubated in a rocking water bath at 37 °C for 30 min in the presence of 0.25% trypsin-EDTA (Sigma-Aldrich). Enzyme-digested dissociated cells were triturated with astrocyte-specific medium (DMEM/F12 containing 10% FBS and 1% penicillin-streptomycin) and centrifuged at 155×g for 8 min. The pellet was resuspended in astrocyte-specific medium and passed through a 40-μm cell strainer. The filtrate was allowed pre-adherence for 30 min to remove any contamination from fibroblasts before being seeded in dishes and the addition of astrocyte-specific medium. To split the cells, Ara-C was added to the dishes and they were then placed in a heated shaker for 6–7 h. The medium was removed from the dishes, and trypsin-EDTA was added to the dish and incubated at 37 °C for 5–10 min. After centrifugation at 155×g for 8 min, the supernatant was removed, and the astrocytes were maintained in culture by feeding […] with astrocyte-specific medium. Primary microglia cultures were prepared from C57BL/6 mice as described previously. In brief, the cortices of 2-months-old mice were minced in Hibernate A (Gibco)/B27 supplements (Gibco) medium and dissociated using papain (Worthington) solution. After tissue trituration, cells were separated by Optiprep (Sigma-Aldrich) density gradient centrifugation. Microglia were plated with microglia-specific medium (DMEM/F12 containing 10% FBS and 1% penicillin-streptomycin). The immortalized human microglia (Applied Biologics Materials, T0251) were cultured in PriGrow III (Applied Biologics Materials, TM003) (supplemented with 10% FBS and 1% penicillin-streptomycin) at 37 °C in a humidified atmosphere of 5% CO2. In order to assess the clinical importance of N-AS in AD microglia, Aβ 1–42 (50 μM, 24 h, Invitrogen, 03112) was exposed to human microglia before treated with zileuton (50 μM, 24 h, Sigma-Aldrich, Z4277). The human microglia treated with Aβ 1–42 and/or zileuton was incubated with N-AS (2.5 μM, 2 h, Sigma-Aldrich, 01912), and were analyzed for the generation and roles of N-AS.
Samples were lysed in RIPA buffer (Cell signaling Technologies), then subjected to SDS-PAGE and transferred to a nitrocellulose membrane. Membranes were blocked with 5% milk, incubated with primary antibody and then incubated with the appropriate horseradish peroxidase-conjugated secondary antibody. […] We performed densitometric quantification using the ImageJ software (National Institutes of Health). Images have been cropped for presentation.

[3] = test system: immortalized human microglia; experiment: LM-SPM profile of human microglia (LC-MS/MS, Supplementary Table 3, Fig 6d); assay type: cell-based; parameters: 15R-LxA4 / RvE1 / RvD1: unit not given here; settings: for 15R-LxA4 / RvD1 / RvE1: human microglia, sFig 6d; for 11-HEPE in human microglia / 11-HETE in human microglia / 13-HDHA in human microglia / 15-HEPE in human microglia / 15-HETE in human microglia / 15R-LXA4 in human microglia / 17-HDHA in human microglia / 18-HEPE in human microglia / PGE3/PGD3 in human microglia / PGH2/PGE2 in human microglia / RvD1 in human microglia / RvE1 in human microglia: mean±s.e.m.
[4] = target: T1, COX2 WT (Homo sapiens, UniProt P35354); experiment: in vitro [14C] acetylation assay of purified COX2; assay type: biochemical; settings: purified COX2 + 14C-labelled acetyl donor, 2 h, 37 °C, scintillation counter, replicates, in cpm (unit assumed)
T1 construct: His (N); made in house
T1 sequence (P35354 18-604): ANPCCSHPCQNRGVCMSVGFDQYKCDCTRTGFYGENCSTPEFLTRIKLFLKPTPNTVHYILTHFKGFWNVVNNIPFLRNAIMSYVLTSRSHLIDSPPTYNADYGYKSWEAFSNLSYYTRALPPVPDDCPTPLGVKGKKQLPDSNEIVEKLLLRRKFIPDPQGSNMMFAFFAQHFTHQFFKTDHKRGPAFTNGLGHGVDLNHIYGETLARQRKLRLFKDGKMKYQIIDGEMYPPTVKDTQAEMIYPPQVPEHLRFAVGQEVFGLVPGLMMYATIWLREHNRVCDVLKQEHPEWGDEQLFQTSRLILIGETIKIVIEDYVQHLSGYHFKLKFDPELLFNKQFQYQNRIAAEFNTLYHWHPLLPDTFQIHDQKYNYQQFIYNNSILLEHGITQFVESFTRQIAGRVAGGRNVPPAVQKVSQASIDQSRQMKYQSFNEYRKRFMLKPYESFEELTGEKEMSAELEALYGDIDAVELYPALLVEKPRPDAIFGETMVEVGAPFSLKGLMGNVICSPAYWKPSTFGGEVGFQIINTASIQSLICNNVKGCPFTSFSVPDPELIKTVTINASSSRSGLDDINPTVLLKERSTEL

In the case of `CC(=O)SCCNC(=O)CCNC(=O)[C@H](O)C(C)(C)COP(=O)(O)OP(=O)(O)OC[C@H]1O[C@@H](n2cnc3c(N)ncnc32)[C@H](O)[C@@H]1OP(=O)(O)O` [Acetyl-CoA, acetyl-CoA], the “ac-S565, western blotting (Fig 3h)” value [1] is reported as 0.4974 and 0.4784 and 0.4801 and 0.5239, the “ac-S565, western blotting (Fig 3h)” value [2] is reported as 1.293 and 1.204 and 1.322 and 1.2834 and the 15R-LxA4 ([3]; Aβ 50 µM +) is reported as 29.8592 and 28.6097 and 30.6248 and 29.0936 and 30.1012. For the same molecule, the RvD1 ([3]; Aβ 50 µM +) was 2.566 and 2.828 and 2.839 and 2.697 and 2.833 and 2.768, the RvE1 ([3]; Aβ 50 µM +) was 14.9946 and 13.574 and 15.0361 and 14.2843 and 14.305 and the “C14 radioactivity of COX2, acetylation assay (Fig 1b)” value (from here on “C14 radioactivity of COX2”) ([4]; listed as C14 Acetyl CoA) was 4565 and 4620 and 4766 and 3817.
`CC(=O)Oc1ccccc1C(=O)O` [Aspirin, acetylsalicylic acid, reference compound] was tested, and the “C14 radioactivity of COX2” value ([4]; listed as C14 Aspirin) was 16445 and 14504 and 14566 and 16561 and 14595 and 14332 and 14859.
In the case of `CCCCCCCCCCCCC/C=C/[C@@H](O)[C@H](CO)NC(C)=O` [N-AS, N-((2S,3R,E)-1,3-Dihydroxyoctadec-4-en-2-yl)acetamide], the “ac-S565, western blotting (Fig 3h)” value [1] is reported as 1.382 and 1.374 (2×) and 1.247, the “ac-S565, western blotting (Fig 3h)” value [2] is reported as 1.339 and 1.447 and 1.994 and 1.362 and the “11-HEPE in human microglia” value ([3]; Aβ 50 µM + treatment) is reported as 371.7±4.0 ng/ml*106cell. The “11-HETE in human microglia” value ([3]; Aβ 50 µM + treatment) was 148.4±1.9 ng/ml*106cell, the “13-HDHA in human microglia” value ([3]; Aβ 50 µM + treatment) was 133.0±1.8 ng/ml*106cell and the “15-HEPE in human microglia” value ([3]; Aβ 50 µM + treatment) was 237.9±3.7 ng/ml*106cell. The “15-HETE in human microglia” value ([3]; Aβ 50 µM + treatment) was 625.4±1.7 ng/ml*106cell, the “15R-LXA4 in human microglia” value ([3]; Aβ 50 µM + treatment) was 19.8±0.2 ng/ml*106cell and the “17-HDHA in human microglia” value ([3]; Aβ 50 µM + treatment) was 707.6±8.2 ng/ml*106cell. For the same molecule, the “18-HEPE in human microglia” value ([3]; Aβ 50 µM + treatment) was 1763.6±30.4 ng/ml*106cell, the “PGE3/PGD3 in human microglia” value ([3]; Aβ 50 µM + treatment) was 132.9±2.0 ng/ml*106cell and the “PGH2/PGE2 in human microglia” value ([3]; Aβ 50 µM + treatment) was 95.7±0.9 ng/ml*106cell. The “RvD1 in human microglia” value ([3]; Aβ 50 µM + treatment) was 2.13±0.02 ng/ml*106cell, the “RvE1 in human microglia” value ([3]; Aβ 50 µM + treatment) was 8.6±0.3 ng/ml*106cell and the “SPM production, in words” value ([3]; Aβ-treated human microglia + N-AS) was “improved SPM production”. The “11-HEPE in human microglia” value ([3]; Control (no Aβ) + treatment) was 451.8±4.6 ng/ml*106cell, the “11-HETE in human microglia” value ([3]; Control (no Aβ) + treatment) was 161.8±0.9 ng/ml*106cell and the “13-HDHA in human microglia” value ([3]; Control (no Aβ) + treatment) was 133.9±2.2 ng/ml*106cell. For the same molecule, the “15-HEPE in human microglia” value ([3]; Control (no Aβ) + treatment) was 284.1±4.0 ng/ml*106cell, the “15-HETE in human microglia” value ([3]; Control (no Aβ) + treatment) was 625.5±6.8 ng/ml*106cell and the “15R-LXA4 in human microglia” value ([3]; Control (no Aβ) + treatment) was 28.7±0.3 ng/ml*106cell. For the same molecule, the “17-HDHA in human microglia” value ([3]; Control (no Aβ) + treatment) was 633.8±9.2 ng/ml*106cell, the “18-HEPE in human microglia” value ([3]; Control (no Aβ) + treatment) was 1636.9±19.7 ng/ml*106cell and the “PGE3/PGD3 in human microglia” value ([3]; Control (no Aβ) + treatment) was 113.1±1.6 ng/ml*106cell. The “PGH2/PGE2 in human microglia” value ([3]; Control (no Aβ) + treatment) was 105.8±1.1 ng/ml*106cell, the “RvD1 in human microglia” value ([3]; Control (no Aβ) + treatment) was 2.36±0.02 ng/ml*106cell and the “RvE1 in human microglia” value ([3]; Control (no Aβ) + treatment) was 18.5±0.4 ng/ml*106cell. For the same molecule, the 15R-LxA4 ([3]; Aβ 50 µM +) was 20.003 and 19.3859 and 19.5943 and 20.5159 and 19.4901 and 20.0551, the RvD1 ([3]; Aβ 50 µM +) was 2.139 and 2.0589 and 2.21 and 2.099 and 2.134 and 2.154 and the RvE1 ([3]; Aβ 50 µM +) was 9.835 and 7.339 and 9.039 and 8.587 and 8.189 and 8.813. For the same molecule, the 15R-LxA4 ([3]; Aβ 50 µM -) was 29.0008 and 28.9046 and 27.6099 and 29.7445 and 28.2572 and 28.6772, the RvD1 ([3]; Aβ 50 µM -) was 2.289 and 2.353 and 2.443 and 2.321 and 2.398 and 2.382 and the RvE1 ([3]; Aβ 50 µM -) was 19.7237 and 16.8195 and 19.2333 and 18.2716 and 18.0264 and 18.7524. The “C14 radioactivity of COX2” value ([4]; listed as C14 N-AS) was 347557 and 414691 and 285538 and 348458 and 418276 and 416508 and 283195.
